Patent US7030138B2, “Benzamidine derivatives” (Sankyo Company, Limited, priority 2001, dated 2006)
Structures can show the parent of a compound that is named as a salt.

Legend:
human factor-Xa = molecular target: T1, human factor-Xa (Homo sapiens, UniProt P00742); assay: Determination of anti-factor Xa activity (S-2222 coloring substrate, absorbance at 405 nm); type: biochemical; conditions: human factor-Xa 0.25 unit/ml, S-2222 0.4 mM, Tris buffer pH 8.4, room temperature, 5 minutes; read-out: Inhibitory Action against Factor Xa Activity (IC50 (nM))
T1 construct: purchased Cosmobio Co., Ltd
T1 sequence (P00742 235-488 limits assumed): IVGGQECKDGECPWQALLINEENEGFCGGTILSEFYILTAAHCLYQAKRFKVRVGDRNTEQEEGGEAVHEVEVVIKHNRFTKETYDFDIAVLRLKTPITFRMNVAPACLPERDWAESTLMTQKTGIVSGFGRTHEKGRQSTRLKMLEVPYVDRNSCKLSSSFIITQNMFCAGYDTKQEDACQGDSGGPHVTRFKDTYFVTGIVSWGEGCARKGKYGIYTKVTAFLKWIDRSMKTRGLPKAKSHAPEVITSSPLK
T1 sequence (P00742 41-179 partner limits assumed): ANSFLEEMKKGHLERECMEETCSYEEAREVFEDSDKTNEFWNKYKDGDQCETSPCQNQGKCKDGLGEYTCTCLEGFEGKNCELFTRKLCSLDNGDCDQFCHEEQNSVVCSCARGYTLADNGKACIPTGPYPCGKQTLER
Procedure: Determination of Anti-factor Xa Activity
Anti-factor Xa activity was determined according to methods described by Hara et al. [Thrombo. Haemost., 71, 314 (1994)], which were slightly modified. S-2222, a coloring substrate (0.4 mM, Daiichi Pure Chemicals Co., Ltd.) and the test compounds were mixed in Tris hydrochloride buffered solution (50 mM, pH: 8.4) containing NaCl (0.9%). To this solution, human factor-Xa (0.25 unit/ml, Cosmobio Co., Ltd.) was added and the reaction was started. In the control group, distilled water was added to the Tris-buffered solution instead of the test compound. The reaction mixture (in total: 0.1 ml) was incubated at room temperature for 5 minutes. Optical absorbance of the reaction mixture was continuously determined at 405 nm with a 96-well microplate reader (Model 550, Biorad) and increase in the absorbance for 5 minutes was calculated as an indicator of factor Xa activity. To assess anti-factor Xa activities of the test compounds, concentrations of the test compounds to inhibit the factor Xa activity by 50% (IC50) were calculated.

bovine trypsin = molecular target: T2, bovine trypsin (Bos taurus, UniProt P00760); assay: Determination of anti-trypsin activity (S-2222 coloring substrate, absorbance at 405 nm); type: biochemical; conditions: bovine trypsin 0.25 μg-protein/ml, S-2222 0.4 mM, Tris buffer pH 8.4, room temperature, 5 minutes; read-out: Inhibitory Action against Trypsin Activity (IC50 (nM))
T2 construct: purchased Sigma
T2 sequence (P00760 24-246): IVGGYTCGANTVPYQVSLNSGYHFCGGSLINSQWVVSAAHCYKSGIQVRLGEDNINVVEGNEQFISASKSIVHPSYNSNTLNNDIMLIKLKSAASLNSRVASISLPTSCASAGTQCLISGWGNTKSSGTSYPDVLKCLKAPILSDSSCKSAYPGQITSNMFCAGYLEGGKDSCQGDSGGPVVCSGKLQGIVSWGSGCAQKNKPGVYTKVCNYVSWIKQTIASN
Procedure: Determination of Anti-trypsin Activity
Anti-trypsin activity was determined according to methods described by Taniuchi et al. [Thromb. Haemost., 79, 543 (1998)], which were partially modified. S-2222, a coloring substrate (5 μl, final concentration: 0.4 mM, Daiichi Pure Chemicals Co., Ltd.) and the test compound (5 μl) were mixed with Tris hydrochloride buffered solution (50 mM, 85 μl, pH: 8.4) containing NaCl (0.9%). To this solution, bovine trypsin (5 μl, final concentration: 0.25 μg-protein/ml, Sigma) was added and the reaction was started. In the control group, distilled water was added to the Tris-buffered solution instead of the test compound. The reaction mixture (in total: 0.1 ml) was incubated at room temperature. Optical absorbance was continuously determined at 405 nm with a 96-well microplate reader (Model 550, Biorad) and increase in the absorbance for 5 minutes was calculated as an indicator of trypsin activity. To assess anti-trypsin activities of the test compounds, concentrations of the test compounds to inhibit the trypsin activity by 50% (IC50) were calculated.

SMILES	IC50 (human factor-Xa) [nM]	IC50 (bovine trypsin) [nM]
N=C(N)c1cccc(/C=C/CN(c2ccc(OC3CCN(Cc4ccccc4)CC3)c(Cl)c2)S(=O)(=O)CC(=O)O)c1 [Example 10, N-[3-(3-Amidinophenyl)-2-(E)-propenyl]-N-[4-(1-benzylpiperidin-4-yloxy)-3-chlorophenyl]sulfamoylacetic acid dihydrochloride]	15	–
N=C(N)c1cccc(/C=C/CN(c2ccc(OC3CCN(CCc4ccccc4)CC3)c(Cl)c2)S(=O)(=O)CC(=O)O)c1 [Example 12, N-[3-(3-Amidinophenyl)-2-(E)-propenyl]-N-[3-chloro-4-(1-phenethylpiperidin-4-yloxy)phenyl]sulfamoylacetic acid dihydrochloride]	13	–
N=C(N)c1cccc(/C=C/CN(c2ccc(OC3CCN(CCc4ccccn4)CC3)c(Cl)c2)S(=O)(=O)CC(=O)O)c1 [Example 36, N-[3-(3-Amidinophenyl)-2-(E)-propenyl]-N-[3-chloro-4-[1-[2-(2-pyridyl)ethyl]piperidin-4-yloxy]phenyl]sulfamoylacetic acid trihydrochloride]	13	–
N=C(N)c1cccc(/C=C/CN(c2ccc(OC3CCN(C4CCCC4)CC3)c(Cl)c2)S(=O)(=O)CC(=O)O)c1 [Example 38, N-[3-(3-Amidinophenyl)-2-(E)-propenyl]-N-[3-chloro-4-(1-cyclopentylpiperidin-4-yloxy)phenyl]sulfamoylacetic acid dihydrochloride]	12	–
N=C(N)c1cccc(/C=C/CN(c2ccc(OC3CCN4CCCC4C3)c(Cl)c2)S(=O)(=O)CC(=O)O)c1 (stereo not shown) [Example 42, dihydrochloride]	11	7300
CN1CCC(Oc2ccc(N(C/C=C/c3cccc(C(=N)N)c3)S(=O)(=O)CC(=O)O)cc2C(F)(F)F)CC1 [Example 46, N-[3-(3-Amidinophenyl)-2-(E)-propenyl]-N-[4–1-methylpiperidin-4-yloxy)-3-trifluoromethylphenyl]sulfamoylacetic acid dihydrochloride]	11	–
N=C(N)c1cccc(/C=C/CN(c2ccc(OC3CCN(C4=NCCCC4)CC3)c(Cl)c2)S(=O)(=O)CC(=O)O)c1 [Example 56, N-[3-(3-Amidinophenyl)-2-(E)-propenyl]-N-[3-chloro-4-[1-(2,3,4,5-tetrahydropyridin-6-yl)piperidin-4-yloxy]phenyl]sulfamoylacetic acid dihydrochloride]	10	–
CCOC(=O)CS(=O)(=O)N(C/C=C/c1cccc(C(=N)N)c1)c1ccc(OC2CCN(C3=NCCCC3)CC2)c(C)c1 [Example 67, Ethyl N-[3-(3-amidinophenyl)-2-(E)-propenyl]-N-[3-methyl-4-[1-(2,3,4,5-tetrahydropyridin-6-yl)piperidin-4-yloxy]phenyl]sulfamoylacetate dihydrochloride]	15	–
Cc1cc(N(C/C=C/c2cccc(C(=N)N)c2)S(=O)(=O)CC(=O)O)ccc1OC1CCN(C2=NCCCC2)CC1 [Example 68, N-[3-(3-Amidinophenyl)-2-(E)-propenyl]-N-[3-methyl-4-(2,3,4,5-tetrahydropyridin-6-yl)piperidin-4-yloxy]phenyl]sulfamoylacetic acid dihydrochloride]	15	–
CCOC(=O)CS(=O)(=O)N(C/C=C/c1cccc(C(=N)N)c1)c1ccc(OC2CCN(C3=NCCCC3)CC2)c(C(F)(F)F)c1 [Example 79, Ethyl N-[3-(3-amidinophenyl)-2-(E)-propenyl]-N-[4-[1-(2,3,4,5-tetrahydropyridin-6-yl)piperidin-4-yloxy]-3-trifluoromethylphenyl]sulfamoylacetate dihydrochloride]	15	–
N=C(N)c1cccc(/C=C/CN(c2ccc(OC3CCN(C4=NCCCC4)CC3)c(C(F)(F)F)c2)S(=O)(=O)CC(=O)O)c1 [Example 80, N-[3-(3-Amidinophenyl)-2-(E)-propenyl]-N-[4-[1-(2,3,4,5-tetrahydropyridin-6-yl)piperidin-4-yloxy]-3-trifluoromethylphenyl]sulfamoylacetic acid dihydrochloride]	11	–
CCOC(=O)CS(=O)(=O)N(C/C=C/c1cccc(C(=N)N)c1)c1ccc(OC2CCN(C3=NCCSC3)CC2)c(Cl)c1 [Example 83, Ethyl N-[3-(3-amidinophenyl)-2-(E)-propenyl]-N-[3-chloro-4-[1-(5,6-dihydro-2H-[1,4]thiazin-3-yl)piperidin-4-yloxy]phenyl]sulfamoylacetate dihydrochloride]	13	–
CCN=CN1CCC(Oc2ccc(N(CC=Cc3cccc(C(=N)N)c3)S(=O)(=O)CC(=O)OCC)cc2Cl)CC1 [Example 86, Ethyl N-[3-(3-amidinophenyl)-2-(E)-propenyl]-N-[3-chloro-4-[1-(N-ethylformimidoyl)piperidin-4-yloxy]phenyl]sulfamoylacetate dihydrochloride]	15	–

The remaining molecules from weak to strong by IC50 (human factor-Xa), led by results:

IC50 (human factor-Xa) [nM]	IC50 (bovine trypsin) [nM]	SMILES
10	–	CCN1CCC(Oc2ccc(N(C/C=C/c3cccc(C(=N)N)c3)S(=O)(=O)CC(=O)O)cc2Cl)CC1 [Example 4, N-[3-(3-Amidinophenyl)-2-(E)-propenyl]-N-[3-chloro-4-(1-ethylpiperidin-4-yloxy)phenyl]sulfamoylacetic acid dihydrochloride]
7.9	540	CCOC(=O)CS(=O)(=O)N(C/C=C/c1cccc(C(=N)N)c1)c1ccc(OC2CCN(c3ccncc3)CC2)c(Cl)c1 [Example 27, Ethyl N-[3-(3-amidinophenyl)-2-(E)-propenyl]-N-[3-chloro-4-[1-(4-pyridyl)piperidin-4-yloxy]phenyl]sulfamoylacetate dihydrochloride]
7.9	–	CCOC(=O)CS(=O)(=O)N(C/C=C/c1cccc(C(=N)N)c1)c1ccc(OC2CCN(C)CC2)c(C(F)(F)F)c1 [Example 45, Ethyl N-[3-(3-amidinophenyl)-2-(E)-propenyl]-N-[4-(1-methylpiperidin-4-yloxy)-3-trifluoromethylphenyl]sulfamoylacetate dihydrochloride]
7.8	–	N=C(N)c1cccc(/C=C/CN(c2ccc(OC3CCN(C(=N)c4ccccc4)CC3)c(Cl)c2)S(=O)(=O)CC(=O)O)c1 [Example 52, N-[3-(3-Amidinophenyl)-2-(E)-propenyl]-N-[4-(1-iminophenylmethylpiperidin-4-yloxy)-3-chlorophenyl]sulfamoylacetic acid dihydrochloride]
6.9	–	CCOC(=O)CS(=O)(=O)N(C/C=C/c1cccc(C(=N)N)c1)c1ccc(OC2CCN(C(=N)c3ccccc3)CC2)c(Cl)c1 [Example 51, Ethyl N-[3-(3-amidinophenyl)-2-(E)-propenyl]-N-[4-(1-iminophenylmethylpiperidin-4-yloxy)-3-chlorophenyl]sulfamoylacetate dihydrochloride]
6.8	860	CCOC(=O)CS(=O)(=O)N(C/C=C/c1cccc(C(=N)N)c1)c1ccc(OC2CCN(C(=N)CC)CC2)c(Cl)c1 [Example 49, Ethyl N-[3-(3-amidinophenyl)-2-(E)-propenyl]-N-[3-chloro-4-[1-(1-iminopropyl)piperidin-4-yloxy]phenyl-1 sulfamoylacetatedihydrochloride]
6.4	650	N=C(N)c1cccc(/C=C/CN(c2ccc(OC3CCN(c4ccncc4)CC3)c(Cl)c2)S(=O)(=O)CC(=O)O)c1 [Example 28, N-[3-(3-Amidinophenyl)-2-(E)-propenyl]-N-[3-chloro-4-[1-(4-pyridyl)piperidin-4-yloxy]phenyl]sulfamoylacetic acid dihydrochloride]
6.1	790	CCOC(=O)CS(=O)(=O)N(C/C=C/c1cccc(C(=N)N)c1)c1ccc(OC2CCN(C=N)CC2)c(Cl)c1 [Example 47, Ethyl N-[3-(3-amidinophenyl)-2-(E)-propenyl]-N-[3-chloro-4-[(1-formimidoylpiperidin-4-yloxy)phenyl]sulfamoylacetatedihydrochloride]
5.8	1200	N=CN1CCC(Oc2ccc(N(C/C=C/c3cccc(C(=N)N)c3)S(=O)(=O)CC(=O)O)cc2Cl)CC1 [Example 48, N-13-(3-Amidinophenyl)-2-(E)-propenyl]-N-[3-chloro-4-(1-formimidoylpiperidin-4-yloxy]phenyl]sulfamoylacetic acid dihydrochloride]
